Several values for one entry are separate records, joined by “and”; a condition that tells them apart may be missing. Equal entries are not always repeated. Inconclusive results and toxic doses are left out. The calls were made as follows: active = survival T/C of 150% or more; inactive = T/C below 125% in these data.
System: CD2F1 mice, L1210 leukemia ip, survival T/C
Assay: NCI In Vivo Anticancer Drug Screen. Data for tumor model L1210 Leukemia (intraperitoneal) in CD2F1 (CDF1) mice
Details: higher = longer survival
In short: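 Ratio T/C, where T is the treated-group value and C the vehicle-dosed control value, from mice implanted with a transplantable tumor.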

[1] = endpoint: mean survival time, dose: 100.0 mg/kg/injection, schedule: Q01DX009 (ip), vehicle: saline with Tween-80

Measured: T/C

COc1cccc2c1C(=O)c1c(O)c3c(c(O)c1C2=O)C[C@@](O)(C(C)=O)C[C@@H]3OC1CC(N)C(O)C(C)O1 (some centres not stated)
inactive: endpoint: mean survival time, dose: 0.06 mg/kg/injection, schedule: Q01DX009 (ip), vehicle: saline 103 % of control | endpoint: mean survival time, dose: 0.13 mg/kg/injection, schedule: Q01DX009 (ip), vehicle: saline 103 % of control | endpoint: mean survival time, dose: 0.2 mg/kg/injection, schedule: Q01DX009 (ip), vehicle: saline 105 % of control | endpoint: mean survival time, dose: 0.2 mg/kg/injection, schedule: Q01DX009 (ip), vehicle: water 100 % of control and 103 % of control and 108 % of control | endpoint: mean survival time, dose: 0.25 mg/kg/injection, schedule: Q01DX005 (ip), vehicle: water 101 % of control | endpoint: mean survival time, dose: 0.25 mg/kg/injection, schedule: Q01DX009 (ip), vehicle: saline 113 % of control and 120 % of control and 105 % of control | endpoint: mean survival time, dose: 0.39 mg/kg/injection, schedule: Q01DX009 (ip), vehicle: saline 119 % of control and 106 % of control | endpoint: mean survival time, dose: 0.39 mg/kg/injection, schedule: Q01DX009 (ip), vehicle: water 101 % of control and 110 % of control and 112 % of control | endpoint: mean survival time, dose: 0.5 mg/kg/injection, schedule: Q01DX005 (ip), vehicle: water 117 % of control and 108 % of control and 110 % of control | endpoint: mean survival time, dose: 0.5 mg/kg/injection, schedule: Q04DX003 (ip), vehicle: water 116 % of control and 98 % of control | endpoint: mean survival time, dose: 0.78 mg/kg/injection, schedule: Q01DX009 (ip), vehicle: saline 116 % of control | endpoint: mean survival time, dose: 0.78 mg/kg/injection, schedule: Q01DX009 (ip), vehicle: water 117 % of control and 120 % of control and 103 % of control | endpoint: mean survival time, dose: 1.0 mg/kg/injection, schedule: Q01DX005 (ip), vehicle: water 118 % of control and 112 % of control | endpoint: mean survival time, dose: 1.0 mg/kg/injection, schedule: Q03DX003 (ip), vehicle: saline 119 % of control | endpoint: mean survival time, dose: 1.0 mg/kg/injection, schedule: Q04DX003 (ip), vehicle: water 105 % of control | endpoint: mean survival time, dose: 1.08 mg/kg/injection, schedule: Q04DX003 (ip), vehicle: saline 120 % of control | endpoint: mean survival time, dose: 1.25 mg/kg/injection, schedule: Q07DX Z (oral), vehicle: clinical formulation 97 % of control | endpoint: mean survival time, dose: 1.25 mg/kg/injection, schedule: Q#B X Z (oral), vehicle: clinical formulation 102 % of control | endpoint: mean survival time, dose: 1.56 mg/kg/injection, schedule: Q01DX009 (ip), vehicle: saline 117 % of control | endpoint: mean survival time, dose: 1.56 mg/kg/injection, schedule: Q01DX009 (ip), vehicle: water 121 % of control and 106 % of control | endpoint: mean survival time, dose: 1.68 mg/kg/injection, schedule: Q01DX001 (ip), vehicle: water 124 % of control | endpoint: mean survival time, dose: 1.8 mg/kg/injection, schedule: Q04DX003 (ip), vehicle: saline 120 % of control | endpoint: mean survival time, dose: 2.0 mg/kg/injection, schedule: Q01DX005 (ip), vehicle: water 121 % of control and 124 % of control | endpoint: mean survival time, dose: 2.0 mg/kg/injection, schedule: Q03DX003 (ip), vehicle: saline 122 % of control | endpoint: mean survival time, dose: 2.0 mg/kg/injection, schedule: Q04DX003 (ip), vehicle: water 123 % of control and 102 % of control | endpoint: mean survival time, dose: 2.5 mg/kg/injection, schedule: Q01DX001 (ip), vehicle: water 118 % of control and 123 % of control and 112 % of control | endpoint: mean survival time, dose: 2.5 mg/kg/injection, schedule: Q07DX Z (oral), vehicle: clinical formulation 97 % of control | endpoint: mean survival time, dose: 2.5 mg/kg/injection, schedule: Q#B X Z (oral), vehicle: clinical formulation 94 % of control | endpoint: mean survival time, dose: 3.0 mg/kg/injection, schedule: Q01DX009 (ip), vehicle: saline 117 % of control | endpoint: mean survival time, dose: 3.0 mg/kg/injection, schedule: Q04DX003 (ip), vehicle: saline 115 % of control | endpoint: mean survival time, dose: 3.13 mg/kg/injection, schedule: Q01DX009 (ip), vehicle: water 117 % of control and 96 % of control | endpoint: mean survival time, dose: 4.0 mg/kg/injection, schedule: Q01DX005 (ip), vehicle: water 120 % of control and 105 % of control | endpoint: mean survival time, dose: 4.0 mg/kg/injection, schedule: Q01DX007 (ip), vehicle: saline 110 % of control | endpoint: mean survival time, dose: 4.0 mg/kg/injection, schedule: Q03DX003 (ip), vehicle: saline 116 % of control | endpoint: mean survival time, dose: 4.0 mg/kg/injection, schedule: Q04DX003 (ip), vehicle: water 100 % of control | endpoint: mean survival time, dose: 4.67 mg/kg/injection, schedule: Q01DX009 (ip), vehicle: water 108 % of control | endpoint: mean survival time, dose: 5.0 mg/kg/injection, schedule: Q01DX001 (ip), vehicle: water 120 % of control and 104 % of control | endpoint: mean survival time, dose: 5.0 mg/kg/injection, schedule: Q04DX003 (ip), vehicle: saline 120 % of control | endpoint: mean survival time, dose: 5.0 mg/kg/injection, schedule: Q07DX Z (oral), vehicle: clinical formulation 97 % of control | endpoint: mean survival time, dose: 5.0 mg/kg/injection, schedule: Q#B X Z (oral), vehicle: clinical formulation 97 % of control | endpoint: mean survival time, dose: 6.25 mg/kg/injection, schedule: Q01DX009 (ip), vehicle: saline 97 % of control | endpoint: mean survival time, dose: 8.0 mg/kg/injection, schedule: Q01DX001 (ip), vehicle: water 109 % of control | endpoint: mean survival time, dose: 8.0 mg/kg/injection, schedule: Q01DX009 (ip), vehicle: saline 100 % of control | endpoint: mean survival time, dose: 8.0 mg/kg/injection, schedule: Q04DX003 (ip), vehicle: saline 119 % of control | endpoint: mean survival time, dose: 8.0 mg/kg/injection, schedule: Q04DX003 (ip), vehicle: water 123 % of control | endpoint: mean survival time, dose: 10.0 mg/kg/injection, schedule: Q01DX001 (ip), vehicle: water 118 % of control and 112 % of control | endpoint: mean survival time, dose: 10.0 mg/kg/injection, schedule: Q07DX Z (oral), vehicle: clinical formulation 102 % of control | endpoint: mean survival time, dose: 10.0 mg/kg/injection, schedule: Q#B X Z (oral), vehicle: clinical formulation 108 % of control | endpoint: mean survival time, dose: 20.0 mg/kg/injection, schedule: Q01DX001 (ip), vehicle: water 89 % of control and 96 % of control | endpoint: mean survival time, dose: 20.0 mg/kg/injection, schedule: Q07DX Z (oral), vehicle: clinical formulation 100 % of control | endpoint: mean survival time, dose: 20.0 mg/kg/injection, schedule: Q#B X Z (oral), vehicle: clinical formulation 94 % of control | endpoint: mean survival time, dose: 40.0 mg/kg/injection, schedule: Q01DX001 (ip), vehicle: saline 62 % of control | endpoint: mean survival time, dose: 40.0 mg/kg/injection, schedule: Q07DX Z (oral), vehicle: clinical formulation 103 % of control | endpoint: mean survival time, dose: 40.0 mg/kg/injection, schedule: Q#B X Z (oral), vehicle: clinical formulation 103 % of control | endpoint: mean survival time, dose: 39.0 micrograms/kg/injection, schedule: Q01DX010 (oral), vehicle: saline 102 % of control | endpoint: mean survival time, dose: 78.0 micrograms/kg/injection, schedule: Q01DX010 (oral), vehicle: saline 102 % of control | endpoint: mean survival time, dose: 156.0 micrograms/kg/injection, schedule: Q01DX010 (oral), vehicle: saline 98 % of control | endpoint: mean survival time, dose: 313.0 micrograms/kg/injection, schedule: Q01DX010 (oral), vehicle: saline 102 % of control | endpoint: mean survival time, dose: 625.0 micrograms/kg/injection, schedule: Q01DX010 (oral), vehicle: saline 104 % of control | endpoint: mean survival time, dose: 1250.0 micrograms/kg/injection, schedule: Q01DX010 (oral), vehicle: saline 101 % of control | endpoint: median survival time, dose: 0.25 mg/kg/injection, schedule: Q01DX005 (iv), vehicle: water 112 % of control | endpoint: median survival time, dose: 0.5 mg/kg/injection, schedule: Q01DX005 (iv), vehicle: water 100 % of control | endpoint: median survival time, dose: 0.5 mg/kg/injection, schedule: Q04DX003 (ip), vehicle: water 99 % of control | endpoint: median survival time, dose: 1.0 mg/kg/injection, schedule: Q01DX005 (iv), vehicle: water 106 % of control | endpoint: median survival time, dose: 1.0 mg/kg/injection, schedule: Q04DX003 (ip), vehicle: water 99 % of control | endpoint: median survival time, dose: 2.0 mg/kg/injection, schedule: Q01DX005 (iv), vehicle: water 112 % of control | endpoint: median survival time, dose: 2.0 mg/kg/injection, schedule: Q04DX003 (ip), vehicle: water 100 % of control | endpoint: median survival time, dose: 4.0 mg/kg/injection, schedule: Q04DX003 (ip), vehicle: water 107 % of control | endpoint: median survival time, dose: 16.0 mg/kg/injection, schedule: Q04DX003 (ip), vehicle: water 109 % of control

CCc1ncc(CO)n1Cc1ccccc1
inactive: [1] 100 % of control

Cc1nc(N)sc1S(=O)(=O)F
inactive: endpoint: mean survival time, dose: 25.0 mg/kg/injection, schedule: Q01DX009 (ip), vehicle: saline with Tween-80 97 % of control | endpoint: mean survival time, dose: 50.0 mg/kg/injection, schedule: Q01DX009 (ip), vehicle: saline with Tween-80 111 % of control | [1] 94 % of control and 108 % of control | endpoint: mean survival time, dose: 200.0 mg/kg/injection, schedule: Q01DX009 (ip), vehicle: saline with Tween-80 101 % of control

NC(=O)C12CCCCC1CCC(=O)C2 (configuration not stated)
inactive: endpoint: mean survival time, dose: 25.0 mg/kg/injection, schedule: Q04DX003 (ip), vehicle: saline 93 % of control | endpoint: mean survival time, dose: 50.0 mg/kg/injection, schedule: Q04DX003 (ip), vehicle: saline 96 % of control | endpoint: mean survival time, dose: 100.0 mg/kg/injection, schedule: Q04DX003 (ip), vehicle: saline 90 % of control

From PubChem BioAssay AID256 (DTP/NCI, 2004)
